Measured values reported in patent US4952678A, “Trisazo dyes” (BASF Aktiengesellschaft, priority 1986, dated 1990).

Assays:
Assay type in all cases: physicochemical
[1] = solubility in liquid crystal ZLI 2452 (saturated solution, comparison of absorbances); details: room temperature, in ZLI 2452
Description: The solubility was determined as follows:
50 mg of the dye was stirred at room temperature into 1 ml of liquid crystal for 1 week, the saturated solution was centrifuged off the residue, and the solubility was determined by comparing the absorbences.

[2] = order parameter S in liquid crystal ZLI 2452 (dichroic ratio by polarized absorbance); details: room temperature, in ZLI 2452
Description: The order parameter S was determined in accordance with the known equation [formula] in a commercial measurement cell of homogeneous edge orientation (polyimide). The dichroic ratio CR was determined by measuring the absorbences E^.parallel. (measurement with light polarized parallel to the preferential direction of the nematic phase) and E^.perp. (measurement with light polarized perpendicular to the preferential direction of the nematic phase) and applying the relationship [formula] the dye concentration being so chosen as to give an E^.parallel. within the range from 1 to 2. The measurements were carried out on an Hitachi U 3200 spectrophotometer.

[3] = absorption maximum in methylene chloride

Structure (SMILES)	Solubility L [%] (at RT) [1]	Order parameter S (at RT) [2]	λmax [nm] (CH2 Cl2) [3]
CCCCC(CC)COc1ccc(N=Nc2ccc(N=Nc3ccc(N=Nc4ccc(OCc5ccccc5)cc4C)cc3)cc2)c(CC)c1 (stereo not drawn) [Example 1]	18.7%	0.815	417 nm
CCCCC(CC)COc1ccc(N=Nc2ccc(N=Nc3ccc(N=Nc4ccc(OCc5ccccc5)c5ccccc45)cc3)cc2)c(CC)c1 (stereo not drawn) [Example 9]	2.0%	0.81	443 nm
CCCCC(CC)COc1ccc(N=Nc2ccc(N=Nc3ccc(N=Nc4ccc(OCc5ccccc5)cc4CC)cc3)cc2)c2ccccc12 (stereo not drawn) [Example 10]	7.1%	0.81	445 nm
CCCCCOc1ccc(COc2ccc(N=Nc3ccc(N=Nc4ccc(N=Nc5ccc(OCC(CC)CCCC)cc5CC)cc4)cc3)c3ccccc23)cc1 (stereo not drawn) [Example 13]	2.9%	0.79	435 nm
CCCCCc1ccc(COc2ccc(N=Nc3ccc(N=Nc4ccc(N=Nc5ccc(OCC(CC)CCCC)cc5CC)cc4)cc3)c3ccccc23)cc1 (stereo not drawn) [Example 14]	5.0%	0.81	443 nm
CCCCCCCCCCCCNc1ccc(N=Nc2ccc(N=Nc3ccc(N=Nc4ccc(OCCCCCCCC)cc4CC)cc3)cc2)c2ccccc12 [Example 15]	2.0%	0.81	535 nm
CCCCCCCCCCCCNc1ccc(N=Nc2ccc(N=Nc3ccc(N=Nc4ccc(OCC(CC)CCCC)cc4CC)cc3)cc2)c2ccccc12 (stereo not drawn) [Example 16]	8.0%	0.80	533 nm
CCCCC(CC)COc1ccc(N=Nc2ccc(N=Nc3ccc(N=Nc4ccc(OCc5ccccc5)c5ccccc45)cc3)c3ccccc23)c(CC)c1 (stereo not drawn) [Example 19]	1.6%	0.79	486 nm
CCCCC(CC)COc1ccc(N=Nc2ccc(N=Nc3ccc(N=Nc4ccc(OCc5ccccc5)cc4CC)c4ccccc34)cc2)c2ccccc12 (stereo not drawn) [Example 20]	1.3%	0.80	489 nm
CCCCC(CC)COc1ccc(N=Nc2ccc(N=Nc3ccc(N=Nc4ccc(OCc5ccccc5)cc4CC)c(OC)c3)cc2)c2ccccc12 (stereo not drawn) [Example 21]	5.5%	0.79	459 nm

More lines, now with the values ahead:

Solubility L [%] (at RT) [1]	Order parameter S (at RT) [2]	λmax [nm] (CH2 Cl2) [3]	Structure (SMILES)
5.1%	0.83	418 nm	CCCCCCCCOc1ccc(N=Nc2ccc(N=Nc3ccc(N=Nc4ccc(OCc5ccc(CCCCC)cc5)cc4C)cc3)cc2)c(CC)c1 [Example 2]
5.3%	0.82	418 nm	CCCCCCCCOc1ccc(N=Nc2ccc(N=Nc3ccc(N=Nc4ccc(OCc5ccc(CCCCC)cc5)cc4CC)cc3)cc2)c(C)c1 [Example 3]
6.4%	0.79	419 nm	CCCCCCCCOc1ccc(N=Nc2ccc(N=Nc3ccc(N=Nc4ccc(OCc5ccccc5)cc4CC)cc3)cc2)c(CC)c1 [Example 4]
3.5%	0.79	418 nm	CCCCCCCCOc1ccc(N=Nc2ccc(N=Nc3ccc(N=Nc4ccc(OCc5ccc(OCCCCC)cc5)cc4CC)cc3)cc2)c(CC)c1 [Example 5]
3.4%	0.79	437 nm	CCCCCCCCOc1ccc(N=Nc2ccc(N=Nc3ccc(N=Nc4ccc(OCc5ccc(OCCCCC)cc5)c5ccccc45)cc3)cc2)c(CC)c1 [Example 11]
2.4%	0.79	441 nm	CCCCCCCCOc1ccc(N=Nc2ccc(N=Nc3ccc(N=Nc4ccc(OCc5ccc(CCCCC)cc5)c5ccccc45)cc3)cc2)c(CC)c1 [Example 12]
